Assay results published in PubChem BioAssay AID1963829 (Molecular Pharmacology Branch, DTP, NCI, 2024).

Test system: 935938-334-R-J1-PDC complex spheroid viability
Experiment: Anticancer human tumor 935938-334-R-J1-PDC patient-derived small intestine adenocarcinoma cell line growth inhibition [POLQ]
Conditions: for IC50: curve of first compound; for viability, T/C: stronger effect = lower value
Method in brief: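 Three-cell-type spheroids modelling solid tumor plus stroma served as the readout system; POL inhibitors were tested individually and in combination, concentration ranges set by clinical Cmax where known.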

[1] = second compound 0.0316 µM, first compound 0.0316 µM
[2] = second compound 0.0316 µM, first compound 0.1 µM
[3] = second compound 0.0316 µM, first compound 0.316 µM
[4] = second compound 0.0316 µM, first compound 1 µM
[5] = second compound 0.0316 µM, first compound 3.16 µM
[6] = second compound 0.0316 µM, first compound 10 µM
[7] = second compound 0.1 µM, first compound 0.0316 µM
[8] = second compound 0.1 µM, first compound 0.1 µM
[9] = second compound 0.1 µM, first compound 0.316 µM
[10] = second compound 0.1 µM, first compound 1 µM
[11] = second compound 0.1 µM, first compound 3.16 µM
[12] = second compound 0.1 µM, first compound 10 µM
[13] = second compound 0.316 µM, first compound 0.0316 µM
[14] = second compound 0.316 µM, first compound 0.1 µM
[15] = second compound 0.316 µM, first compound 0.316 µM
[16] = second compound 0.316 µM, first compound 1 µM
[17] = second compound 0.316 µM, first compound 3.16 µM
[18] = second compound 0.316 µM, first compound 10 µM
[19] = second compound 1 µM, first compound 0.0316 µM
[20] = second compound 1 µM, first compound 0.1 µM
[21] = second compound 1 µM, first compound 0.316 µM
[22] = second compound 1 µM, first compound 1 µM
[23] = second compound 1 µM, first compound 3.16 µM
[24] = second compound 1 µM, first compound 10 µM
[25] = second compound 3.16 µM, first compound 0.0316 µM
[26] = second compound 3.16 µM, first compound 0.1 µM
[27] = second compound 3.16 µM, first compound 0.316 µM
[28] = second compound 3.16 µM, first compound 1 µM
[29] = second compound 3.16 µM, first compound 3.16 µM
[30] = second compound 3.16 µM, first compound 10 µM
[31] = second compound 10 µM, first compound 0.0316 µM
[32] = second compound 10 µM, first compound 0.1 µM
[33] = second compound 10 µM, first compound 0.316 µM
[34] = second compound 10 µM, first compound 1 µM
[35] = second compound 10 µM, first compound 3.16 µM
[36] = second compound 10 µM, first compound 10 µM
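Also: spheroids exposed to drugs for seven days before viability read.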
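For viability, T/C in this document: 100% = DMSO vehicle control wells.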

In the case of `CC(=O)O[C@H]1C(=O)[C@@]2(C)[C@H]([C@H](OC(=O)c3ccccc3)[C@]3(O)C[C@H](OC(=O)[C@H](O)[C@@H](NC(=O)c4ccccc4)c4ccccc4)C(C)=C1C3(C)C)[C@]1(OC(C)=O)CO[C@@H]1C[C@@H]2O` + Nc1ccc(C#CCN(C(=O)Cc2ncc(C(F)(F)F)cc2C(F)(F)F)c2ccc(F)cc2)nn1, the IC50 (second compound 0.0316 µM) is reported as under 9.49 nM, the IC50 (second compound 0.1 µM) is reported as under 9.49 nM and the IC50 (second compound 0.316 µM) is reported as under 9.49 nM. The IC50 (second compound 1 µM) was under 9.49 nM, the IC50 (second compound 3.16 µM) was under 9.49 nM and the IC50 (second compound 10 µM) was under 9.49 nM. The viability, T/C (second compound 0.0316 µM, first compound 0.00949 µM) was 44.6%, the viability, T/C (second compound 0.0316 µM, first compound 0.03 µM) was 17.6% and the viability, T/C (second compound 0.0316 µM, first compound 0.0949 µM) was 13.5%. For the same compound, the viability, T/C (second compound 0.0316 µM, first compound 0.3 µM) was 18.1%, the viability, T/C (second compound 0.0316 µM, first compound 0.949 µM) was 16.1% and the viability, T/C (second compound 0.0316 µM, first compound 3 µM) was 16.3%. The viability, T/C (second compound 0.1 µM, first compound 0.00949 µM) was 34%, the viability, T/C (second compound 0.1 µM, first compound 0.03 µM) was 18% and the viability, T/C (second compound 0.1 µM, first compound 0.0949 µM) was 17.1%. For the same compound, the viability, T/C (second compound 0.1 µM, first compound 0.3 µM) was 17.1%, the viability, T/C (second compound 0.1 µM, first compound 0.949 µM) was 17.8% and the viability, T/C (second compound 0.1 µM, first compound 3 µM) was 21.7%. For the same compound, the viability, T/C (second compound 0.316 µM, first compound 0.00949 µM) was 43%, the viability, T/C (second compound 0.316 µM, first compound 0.03 µM) was 18.5% and the viability, T/C (second compound 0.316 µM, first compound 0.0949 µM) was 14.1%. For the same compound, the viability, T/C (second compound 0.316 µM, first compound 0.3 µM) was 11.7%, the viability, T/C (second compound 0.316 µM, first compound 0.949 µM) was 15.3% and the viability, T/C (second compound 0.316 µM, first compound 3 µM) was 15.9%. It also gave a viability, T/C (second compound 1 µM, first compound 0.00949 µM) of 30%, a viability, T/C (second compound 1 µM, first compound 0.03 µM) of 21.3% and a viability, T/C (second compound 1 µM, first compound 0.0949 µM) of 17.1%. The viability, T/C (second compound 1 µM, first compound 0.3 µM) was 15.5%, the viability, T/C (second compound 1 µM, first compound 0.949 µM) was 14.3% and the viability, T/C (second compound 1 µM, first compound 3 µM) was 16.9%. The viability, T/C (second compound 3.16 µM, first compound 0.00949 µM) was 40.9%, the viability, T/C (second compound 3.16 µM, first compound 0.03 µM) was 18.5% and the viability, T/C (second compound 3.16 µM, first compound 0.0949 µM) was 16.3%. For the same compound, the viability, T/C (second compound 3.16 µM, first compound 0.3 µM) was 13.8%, the viability, T/C (second compound 3.16 µM, first compound 0.949 µM) was 18.4% and the viability, T/C (second compound 3.16 µM, first compound 3 µM) was 19.4%. It also gave a viability, T/C (second compound 10 µM, first compound 0.00949 µM) of 47.3%, a viability, T/C (second compound 10 µM, first compound 0.03 µM) of 18.7% and a viability, T/C (second compound 10 µM, first compound 0.0949 µM) of 16.7%. For the same compound, the viability, T/C (second compound 10 µM, first compound 0.3 µM) was 15.5%, the viability, T/C (second compound 10 µM, first compound 0.949 µM) was 15.8% and the viability, T/C (second compound 10 µM, first compound 3 µM) was 17.5%.

For `COc1cc(C2c3cc4c(cc3C(OC3OC5COC(C)OC5C(O)C3O)C3COC(=O)C23)OCO4)cc(OC)c1O` (stereo unspecified) + Nc1ccc(C#CCN(C(=O)Cc2ncc(C(F)(F)F)cc2C(F)(F)F)c2ccc(F)cc2)nn1, the IC50 (second compound 0.0316 µM) was 832 nM, the IC50 (second compound 0.1 µM) was 666 nM and the IC50 (second compound 0.316 µM) was 762 nM. The IC50 (second compound 1 µM) was 616 nM, the IC50 (second compound 3.16 µM) was 597 nM and the IC50 (second compound 10 µM) was 565 nM. For the same compound, the viability, T/C [1] was 95.1%, the viability, T/C [2] was 86.1% and the viability, T/C [3] was 87.8%. For the same compound, the viability, T/C [4] was 42.9%, the viability, T/C [5] was 26.8% and the viability, T/C [6] was 31.6%. The viability, T/C [7] was 99.5%, the viability, T/C [8] was 90.8% and the viability, T/C [9] was 74.5%. For the same compound, the viability, T/C [10] was 35.5%, the viability, T/C [11] was 37.5% and the viability, T/C [12] was 29.9%. It also gave a viability, T/C [13] of 108%, a viability, T/C [14] of 68.9% and a viability, T/C [15] of 69.1%. It also gave a viability, T/C [16] of 49.6%, a viability, T/C [17] of 31.2% and a viability, T/C [18] of 30.4%. For the same compound, the viability, T/C [19] was 83.3%, the viability, T/C [20] was 89.2% and the viability, T/C [21] was 60.3%. It also gave a viability, T/C [22] of 43.9%, a viability, T/C [23] of 28% and a viability, T/C [24] of 31.7%. It also gave a viability, T/C [25] of 109%, a viability, T/C [26] of 86.7% and a viability, T/C [27] of 64.6%. The viability, T/C [28] was 37.6%, the viability, T/C [29] was 32.7% and the viability, T/C [30] was 31.3%. For the same compound, the viability, T/C [31] was 110%, the viability, T/C [32] was 79.2% and the viability, T/C [33] was 64.8%. It also gave a viability, T/C [34] of 38.4%, a viability, T/C [35] of 29% and a viability, T/C [36] of 33.7%.

With `O=c1[nH]cc(F)c(=O)[nH]1` + Nc1ccc(C#CCN(C(=O)Cc2ncc(C(F)(F)F)cc2C(F)(F)F)c2ccc(F)cc2)nn1 the IC50 (second compound 0.0316 µM) was over 10000 nM, the IC50 (second compound 0.1 µM) was over 10000 nM and the IC50 (second compound 0.316 µM) was over 10000 nM. For the same compound, the IC50 (second compound 1 µM) was over 10000 nM, the IC50 (second compound 3.16 µM) was over 10000 nM and the IC50 (second compound 10 µM) was over 10000 nM. It also gave a viability, T/C [1] of 83%, a viability, T/C [2] of 88.5% and a viability, T/C [3] of 87.4%. It also gave a viability, T/C [4] of 68.5%, a viability, T/C [5] of 62.7% and a viability, T/C [6] of 48.8%. The viability, T/C [7] was 101%, the viability, T/C [8] was 92.9% and the viability, T/C [9] was 82.1%. The viability, T/C [10] was 66.3%, the viability, T/C [11] was 60.7% and the viability, T/C [12] was 53.4%. It also gave a viability, T/C [13] of 81.5%, a viability, T/C [14] of 74.1% and a viability, T/C [15] of 88.9%. For the same compound, the viability, T/C [16] was 68.4%, the viability, T/C [17] was 55.8% and the viability, T/C [18] was 56.5%. For the same compound, the viability, T/C [19] was 103%, the viability, T/C [20] was 79.7% and the viability, T/C [21] was 104%. The viability, T/C [22] was 68.9%, the viability, T/C [23] was 55% and the viability, T/C [24] was 61%. For the same compound, the viability, T/C [25] was 92.2%, the viability, T/C [26] was 85.8% and the viability, T/C [27] was 86.6%. The viability, T/C [28] was 62.1%, the viability, T/C [29] was 61% and the viability, T/C [30] was 53.7%. For the same compound, the viability, T/C [31] was 125%, the viability, T/C [32] was 101% and the viability, T/C [33] was 91.8%. It also gave a viability, T/C [34] of 58.3%, a viability, T/C [35] of 52.4% and a viability, T/C [36] of 56.7%.
